Measured values as given in the CheMixHub viscosity set.
Where “and” joins values, the source holds several entries; their conditions need not be identical. Identical values can stand only once. ± gives the uncertainty stated by the source.

Assay: xn = mol fraction of the nth substance listed

[Cl-].[Na+] + O
Details	viscosity
293.15 K, 101.3 kPa, x1 = 0.02	1.079 ± 0.038 mPa·s
293.15 K, 101.3 kPa, x1 = 0.03479	1.188 ± 0.042 mPa·s
295.95 K, 100 kPa, x1 = 0.045	1.205 ± 0.0052 mPa·s
296.05 K, 100 kPa, x1 = 0.006	0.95 ± 0.08 mPa·s
296.17 K, 100 kPa, x1 = 0.06928	1.448 ± 0.0085 mPa·s
296.24 K, 100 kPa, x1 = 0.06928	1.444 ± 0.0085 mPa·s
296.26 K, 100 kPa, x1 = 0.06928	1.444 ± 0.0084 mPa·s
296.5 K, 100 kPa, x1 = 0.045	1.192 ± 0.0052 mPa·s
296.51 K, 100 kPa, x1 = 0.045	1.191 ± 0.0052 mPa·s
296.65 K, 100 kPa, x1 = 0.008493	0.958 ± 0.0081 mPa·s and 0.96 ± 0.0081 mPa·s
296.77 K, 100 kPa, x1 = 0.06928	1.427 ± 0.0082 mPa·s
297.15 K, 100 kPa, x1 = 0.01884	1.001 ± 0.025 mPa·s and 1.002 ± 0.025 mPa·s
298.15 K, 100 kPa, x1 = 0.04394	1.132 ± 0.009 mPa·s
298.15 K, 100 kPa, x1 = 0.05559	1.241 ± 0.01 mPa·s
298.15 K, 101.3 kPa, x1 = 0.001798	0.8994 ± 0.0085 mPa·s
298.15 K, 101.3 kPa, x1 = 0.005732	0.9164 ± 0.0086 mPa·s
298.15 K, 101.3 kPa, x1 = 0.009	0.9256 ± 0.032 mPa·s
298.15 K, 101.3 kPa, x1 = 0.01421	0.9571 ± 0.0089 mPa·s
298.15 K, 101.3 kPa, x1 = 0.02	0.9683 ± 0.034 mPa·s
298.15 K, 101.3 kPa, x1 = 0.02116	0.9928 ± 0.0092 mPa·s
298.15 K, 101.3 kPa, x1 = 0.03479	1.071 ± 0.037 mPa·s
298.15 K, 101.32 kPa, x1 = 0.09892	1.633 ± 0.16 mPa·s
298.65 K, 100 kPa, x1 = 0.07389	1.412 ± 0.011 mPa·s and 1.413 ± 0.011 mPa·s and 1.41 ± 0.011 mPa·s
300.65 K, 100 kPa, x1 = 0.08874	1.525 ± 0.012 mPa·s
301.01 K, 100 kPa, x1 = 0.09185	1.546 ± 0.011 mPa·s
301.02 K, 100 kPa, x1 = 0.09185	1.545 ± 0.011 mPa·s
301.09 K, 100 kPa, x1 = 0.06928	1.299 ± 0.0083 mPa·s
301.12 K, 100 kPa, x1 = 0.06928	1.298 ± 0.0083 mPa·s
301.15 K, 100 kPa, x1 = 0.008493	0.868 ± 0.007 mPa·s
301.25 K, 100 kPa, x1 = 0.01884	0.9164 ± 0.023 mPa·s and 0.9176 ± 0.023 mPa·s
301.59 K, 100 kPa, x1 = 0.045	1.071 ± 0.0054 mPa·s
301.67 K, 100 kPa, x1 = 0.045	1.067 ± 0.0054 mPa·s
301.68 K, 100 kPa, x1 = 0.045	1.069 ± 0.0049 mPa·s
301.71 K, 100 kPa, x1 = 0.09185	1.521 ± 0.011 mPa·s
301.87 K, 100 kPa, x1 = 0.06928	1.277 ± 0.0073 mPa·s
303.15 K, 100 kPa, x1 = 0.02582	0.92 ± 0.007 mPa·s
303.15 K, 101 kPa, x1 = 0.008924	0.8232 ± 0.019 mPa·s
303.15 K, 101 kPa, x1 = 0.01768	0.8649 ± 0.021 mPa·s
303.15 K, 101 kPa, x1 = 0.02626	0.911 ± 0.022 mPa·s
303.15 K, 101.3 kPa, x1 = 0.001	0.807 ± 0.017 mPa·s
303.15 K, 101.3 kPa, x1 = 0.009	0.8358 ± 0.029 mPa·s
303.15 K, 101.3 kPa, x1 = 0.02	0.8758 ± 0.031 mPa·s
303.15 K, 101.3 kPa, x1 = 0.03479	0.9703 ± 0.034 mPa·s
303.65 K, 100 kPa, x1 = 0.04394	1.016 ± 0.008 mPa·s and 1.019 ± 0.008 mPa·s
304.15 K, 100 kPa, x1 = 0.05559	1.096 ± 0.009 mPa·s and 1.095 ± 0.009 mPa·s
308.15 K, 100 kPa, x1 = 0.07389	1.166 ± 0.01 mPa·s
308.15 K, 101.3 kPa, x1 = 0.001798	0.7274 ± 0.0071 mPa·s
308.15 K, 101.3 kPa, x1 = 0.00359	0.7334 ± 0.0071 mPa·s
308.15 K, 101.3 kPa, x1 = 0.005732	0.7425 ± 0.0072 mPa·s
308.15 K, 101.3 kPa, x1 = 0.008927	0.7567 ± 0.0073 mPa·s
308.15 K, 101.3 kPa, x1 = 0.01421	0.7787 ± 0.0074 mPa·s
308.15 K, 101.3 kPa, x1 = 0.02116	0.81 ± 0.0076 mPa·s
308.65 K, 100 kPa, x1 = 0.07389	1.151 ± 0.01 mPa·s and 1.152 ± 0.01 mPa·s
308.66 K, 100 kPa, x1 = 0.06928	1.115 ± 0.0082 mPa·s and 1.116 ± 0.0081 mPa·s
308.68 K, 100 kPa, x1 = 0.06928	1.116 ± 0.0081 mPa·s
308.71 K, 100 kPa, x1 = 0.06928	1.113 ± 0.0083 mPa·s
308.73 K, 100 kPa, x1 = 0.06928	1.113 ± 0.0082 mPa·s
309.04 K, 100 kPa, x1 = 0.045	0.9262 ± 0.0039 mPa·s
309.11 K, 100 kPa, x1 = 0.045	0.926 ± 0.0043 mPa·s
309.26 K, 100 kPa, x1 = 0.045	0.9211 ± 0.0046 mPa·s
313.15 K, 100 kPa, x1 = 0.05559	0.926 ± 0.007 mPa·s and 0.924 ± 0.007 mPa·s
313.15 K, 101 kPa, x1 = 0.008924	0.6852 ± 0.016 mPa·s
313.15 K, 101 kPa, x1 = 0.01768	0.7209 ± 0.017 mPa·s
313.15 K, 101 kPa, x1 = 0.02626	0.759 ± 0.018 mPa·s
313.15 K, 101.3 kPa, x1 = 0.001	0.668 ± 0.014 mPa·s
313.15 K, 101.3 kPa, x1 = 0.009	0.6992 ± 0.025 mPa·s
313.15 K, 101.3 kPa, x1 = 0.02	0.7327 ± 0.026 mPa·s
313.15 K, 101.3 kPa, x1 = 0.03479	0.8126 ± 0.029 mPa·s
313.15 K, 101.32 kPa, x1 = 0.1014	1.281 ± 0.13 mPa·s
313.65 K, 100 kPa, x1 = 0.008493	0.679 ± 0.005 mPa·s
313.65 K, 100 kPa, x1 = 0.02582	0.751 ± 0.006 mPa·s and 0.75 ± 0.006 mPa·s and 0.748 ± 0.006 mPa·s
314.15 K, 100 kPa, x1 = 0.04394	0.834 ± 0.006 mPa·s
317.65 K, 100 kPa, x1 = 0.08874	1.092 ± 0.009 mPa·s and 1.096 ± 0.009 mPa·s
318.15 K, 100 kPa, x1 = 0.07389	0.974 ± 0.008 mPa·s and 0.97 ± 0.008 mPa·s and 0.973 ± 0.008 mPa·s
318.15 K, 101.3 kPa, x1 = 0.001798	0.6031 ± 0.006 mPa·s
318.15 K, 101.3 kPa, x1 = 0.00359	0.6082 ± 0.006 mPa·s
318.15 K, 101.3 kPa, x1 = 0.005732	0.6163 ± 0.0061 mPa·s
318.15 K, 101.3 kPa, x1 = 0.008927	0.6293 ± 0.0062 mPa·s
318.15 K, 101.3 kPa, x1 = 0.01421	0.6488 ± 0.0063 mPa·s
323.15 K, 101 kPa, x1 = 0.008924	0.5852 ± 0.014 mPa·s
323.15 K, 101 kPa, x1 = 0.01768	0.617 ± 0.015 mPa·s
323.15 K, 101 kPa, x1 = 0.02626	0.6491 ± 0.015 mPa·s
323.15 K, 101.3 kPa, x1 = 0.009	0.6002 ± 0.021 mPa·s
323.15 K, 101.3 kPa, x1 = 0.02	0.6302 ± 0.022 mPa·s
323.15 K, 101.3 kPa, x1 = 0.03479	0.6611 ± 0.023 mPa·s
